Reference: US8338418B2, “Dual-acting antihypertensive agents” (Theravance, Inc., priority 2008, dated 2012)

Tests used:
[1] = molecular target: T1, human AT1 receptor (Homo sapiens, UniProt P30556); experiment: AT1 radioligand binding assay; details: [Eu]AngII displacement, CHO-K1 membranes expressing human AT1; read-out: pKi at the AT1 receptor (converted)
T1 construct: expressed in transfected cells; membrane preparation
T1 sequence (P30556 1-359): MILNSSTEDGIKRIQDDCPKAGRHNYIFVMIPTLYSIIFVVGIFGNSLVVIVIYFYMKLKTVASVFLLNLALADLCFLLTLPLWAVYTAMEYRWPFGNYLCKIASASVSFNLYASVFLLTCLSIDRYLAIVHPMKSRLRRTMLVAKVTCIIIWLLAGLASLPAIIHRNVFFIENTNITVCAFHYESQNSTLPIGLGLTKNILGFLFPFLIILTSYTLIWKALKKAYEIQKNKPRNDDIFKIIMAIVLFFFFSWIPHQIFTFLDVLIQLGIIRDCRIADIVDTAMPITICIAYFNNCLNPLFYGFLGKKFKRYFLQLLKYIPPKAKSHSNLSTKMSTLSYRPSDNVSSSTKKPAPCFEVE
Method: These in vitro assays were used to assess the ability of test compounds to bind to the AT1 and the AT2 receptors.
Membrane Preparation from Cells Expressing Human AT1 or AT2 Receptors
Chinese hamster ovary (CHO-K1) derived cell lines stably expressing the cloned human AT1 or AT2 receptors, respectively, were grown in HAM's-F12 medium supplemented with 10% fetal bovine serum, 10 μg/ml penicillin/streptomycin, and 500 μg/ml geneticin in a 5% CO2 humidified incubator at 37° C. AT2 receptor expressing cells were grown in the additional presence of 100 nM PD123,319 (AT2 antagonist). When cultures reached 80-95% confluence, the cells were washed thoroughly in PBS and lifted with 5 mM EDTA. Cells were pelleted by centrifugation and snap frozen in MeOH-dry ice and stored at −80° C. until further use.
For membrane preparation, cell pellets were resuspended in lysis buffer (25 mM Tris/HCl pH 7.5 at 4° C., 1 mM EDTA, and one tablet of Complete Protease Inhibitor Cocktail Tablets with 2 mM EDTA per 50 mL buffer (Roche cat. #1697498, Roche Molecular Biochemicals, Indianapolis, Ind.)) and homogenized using a tight-fitting Dounce glass homogenizer (10 strokes) on ice. The homogenate was centrifuged at 1000×g, the supernatant was collected and centrifuged at 20,000×g. […] Protein concentration of the membrane suspension was determined by the method described in Bradford (1976) Anal Biochem. 72:248-54. […]

[2] = molecular target: T2, NEP enzyme (Homo sapiens, UniProt P08473); experiment: In vitro NEP enzyme inhibition assay; assay type: biochemical; details: fluorogenic peptide substrate; read-out: pIC50 for the NEP enzyme (converted)
T2 construct: purchased R&D Systems, Minneapolis, Minn; 1182-ZN
Method: The inhibitory activities of compounds at human and rat NEP and human ACE were determined using in vitro assays as described below.
Rat NEP was prepared from the kidneys of adult Sprague Dawley rats. Whole kidneys were washed in cold PBS and brought up in ice-cold lysis buffer (1% Triton X-114, 150 mM NaCl, 50 mM Tris pH 7.5; Bordier (1981) J. Biol. Chem. 256:1604-1607) in a ratio of 5 mL of buffer for every gram of kidney. Samples were homogenized using a polytron hand held tissue grinder on ice. Homogenates were centrifuged at 1000×g in a swinging bucket rotor for 5 minutes at 3° C. The pellet was resuspended in 20 mL of ice cold lysis buffer and incubated on ice for 30 minutes. […] Protein concentrations were quantitated using a BCA detection system with BSA as a standard. […]
The assays were performed in 384-well white opaque plates at room temperature using the respective fluorogenic peptides at a concentration of 10 μM in Assay Buffer (50 mM Tris/HCl at 25° C., 100 mM NaCl, 0.01% Tween-20, 1 μM Zn, 0.025% BSA). […] The rat NEP enzyme preparation was used at a concentration that yielded quantitative proteolysis of 3 μM of Mca-RRL within 20 minutes at room temperature. […]
Plates were read on a fluorometer with excitation and emission wavelengths set to 320 nm and 405 nm, respectively. […]

T2 sequence (P08473 52-750 limits assumed): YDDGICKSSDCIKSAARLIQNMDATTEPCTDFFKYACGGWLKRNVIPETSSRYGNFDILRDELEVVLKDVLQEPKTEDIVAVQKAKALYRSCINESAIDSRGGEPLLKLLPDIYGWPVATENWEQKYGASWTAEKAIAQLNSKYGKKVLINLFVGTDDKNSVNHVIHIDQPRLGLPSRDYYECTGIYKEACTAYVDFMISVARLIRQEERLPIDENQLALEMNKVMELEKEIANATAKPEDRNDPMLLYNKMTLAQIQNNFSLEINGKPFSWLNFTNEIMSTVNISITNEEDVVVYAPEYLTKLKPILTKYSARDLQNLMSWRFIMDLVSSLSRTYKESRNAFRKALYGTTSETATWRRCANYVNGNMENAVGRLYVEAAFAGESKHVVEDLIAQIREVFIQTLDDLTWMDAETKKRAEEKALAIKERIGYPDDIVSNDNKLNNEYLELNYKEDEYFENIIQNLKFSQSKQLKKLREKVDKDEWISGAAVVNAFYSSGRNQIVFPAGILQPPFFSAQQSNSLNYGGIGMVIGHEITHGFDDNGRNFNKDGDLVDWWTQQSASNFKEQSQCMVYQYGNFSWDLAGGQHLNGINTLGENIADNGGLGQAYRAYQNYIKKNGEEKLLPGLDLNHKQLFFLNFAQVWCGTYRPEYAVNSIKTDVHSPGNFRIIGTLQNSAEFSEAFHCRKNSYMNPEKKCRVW

Ki [1]: < 10 µM
IC50 [2]: ≤ 0.1 µM
Structure (SMILES): CCCCc1nc(C(=O)N[C@@H](CC(=O)NO)Cc2ccccc2)cn1Cc1ccc(C(=O)O)cc1 [Example 1, 4-[4-((R)-1-benzyl-2-hydroxycarbamoylethylcarbamoyl)-2-butyl-imidazol-1-ylmethyl]benzoic Acid]
